# According to article PMC11048566, “The Development of a Regulator of Human Serine Racemase for N-Methyl-D-aspartate Function” (Biomedicines, 2024):
# Read-outs that look alike come from different tables or passages of the source.
# Target: T1, human serine racemase (hSR) (Homo sapiens, UniProt Q9GZT4)
# T1 construct: 6xHis (C); made in house; host or cells: E. coli BL21 (pET42b-hSR)
# T1 sequence (Q9GZT4 1-340): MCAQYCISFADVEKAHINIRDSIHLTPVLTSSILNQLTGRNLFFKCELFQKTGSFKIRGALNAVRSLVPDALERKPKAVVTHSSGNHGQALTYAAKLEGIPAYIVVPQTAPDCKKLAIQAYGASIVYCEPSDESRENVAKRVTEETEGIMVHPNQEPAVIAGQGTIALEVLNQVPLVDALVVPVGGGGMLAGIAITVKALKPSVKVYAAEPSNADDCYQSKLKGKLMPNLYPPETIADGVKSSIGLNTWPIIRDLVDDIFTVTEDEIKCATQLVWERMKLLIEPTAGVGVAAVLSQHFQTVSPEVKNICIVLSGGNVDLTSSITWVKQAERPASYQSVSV
# Experiment: Two-step enzymatic assay of hSR racemization (hSR, then DAAO/HRP/Amplex Red)
# Assay type: biochemical
# Settings: 0.25 mM ATP
# Description: This assay was designed by the formation of D-serine by hSR and the oxidation of D-serine by D-amino acid oxidase (DAAO) and horseradish peroxidase (HRP) with the peroxidase substrate Amplex Red^TM (10-acetyl-3,7-dihydroxyphenoxazine) (Thermo Fisher Scientific, Lagoas Park, Porto Salvo, Portugal). The hSR activity assay reaction was carried out in 100 mM HEPES buffer, pH 8.0, containing 2.4 µg of hSR protein, 50 µM PLP, 1 mM MgCl2, 0.25 mM ATP, 400 mM L-serine, and 2 times serially diluted α12G (8 mM to 0.2 µM). Compound-free wells were used as blank controls in the assay. All reactions were performed in duplicates. The reaction mixtures were incubated at 37 °C for 4 h. The reaction was stopped by heating the reaction mixtures at 95 °C for 10 min and storage at 4 °C. A reaction mixture for the second-step enzymatic assay, DAAO assay, with a final volume of 100 µL was made with a 10 µL sample from hSR assay, 45 µM FAD, 10 units of HRP, 60 ng DAAO, 10 mM lead acetate, 10 mM Amplex Red^TM, and 100 mM Tris HCl (pH = 8.5). Lead acetate was used to conjugate α12G as the latter would inhibit the DAAO function in the fluorometric assay, leading to an […] of the effects of α12G on hSR. The fluorescence was detected by the TECAN Infinite 200 Microplate Reader (GMI, MN, USA). The racemization percentage was calculated as follows: racemization % = (Fsample, 20 min − Fsample, 0 min)/(Fblank, 20 min − Fblank, 0 min) × 100%. […] The two-step enzymatic assay described in Section 2.3 was designed by the formation of D-serine by hSR and the consequent oxidation of D-serine by DAAO. The inhibition of DAAO, which also degrades D-serine, by α12G will lead to overestimating the effects of racemization by hSR. […] Therefore, lead acetate was applied to conjugate α12G for the determination of racemization. […] On the contrary, when the concentration of α12G is higher than 2 mM, the racemization activity of hSR is inhibited.
compound,measurement,setting,value
"O=C(Oc1cc(C(=O)Oc2cc(C(=O)O[C@H]3OC[C@@H](OC(=O)c4cc(O)c(O)c(OC(=O)c5cc(O)c(O)c(OC(=O)c6cc(O)c(O)c(O)c6)c5)c4)[C@H](OC(=O)c4cc(O)c(O)c(OC(=O)c5cc(O)c(O)c(OC(=O)c6cc(O)c(O)c(O)c6)c5)c4)[C@H]3OC(=O)c3cc(O)c(O)c(OC(=O)c4cc(O)c(O)c(OC(=O)c5cc(O)c(O)c(O)c5)c4)c3)cc(O)c2O)cc(O)c1O)c1cc(O)c(O)c(O)c1 [α12G, (2R,3R,4S,5R)-tetrahydro-2H-pyran-2,3,4,5-tetrayl tetrakis(3-((3,4-dihydroxy-5-((3,4,5-trihydroxybenzoyl)oxy)benzoyl)ox)-4,5-dihydroxybenzoate)]",Concentration above which hSR racemization activity is inhibited,,higher than 2 mM
same,EC100 (concentration of highest racemization activity),"400 mM L-serine, lead acetate in second step",31.25 µM
same,Enhancement of hSR racemization,maximum vs compound-free,about 8 fold
same,EC50,"falling limb of inverted U-shape curve, read-out: EC50 on hSR racemization (progressively inhibiting racemization)",221 µM
same,EC50,"rising limb of inverted U-shape curve, read-out: EC50 on hSR racemization (favoring racemization)",8.82 µM
